The target in assay [1] is T1, c-Src kinase domain (Homo sapiens, UniProt P12931). Nature of the assay: pTyr-Var library bacterial peptide display kinase screen (enrichment scores).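 Further: log2 fold change in enrichment of variant over reference.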 The format is biochemical. The conditions noted are these: sheet "Src"; variant peptide versus its reference peptide in the pTyr-Var library screen.
Assay [2] deals with T1, c-Src kinase domain. Put plainly: RP-HPLC assay to measure peptide phosphorylation kinetics. The format is biochemical. The conditions noted are these: purified peptide substrate. On the procedure: To validate the enrichment scores observed in the c-Src screening data, the phosphorylation rates were measured in vitro with the purified catalytic domain of c-Src and synthetic 11-residue peptides derived from sequences in the pTyr-Var library. […] Reactions were initiated by adding 1 mM ATP. At various time points, 100 μL aliquots were removed and quenched by the addition of EDTA to a final concentration of 25 mM. Each time point sample was analyzed by analytical RP-HPLC, monitoring absorbance at 214 nm. Forty μL of each time point was injected onto a C18 column (ZORBAX 300 SB-C18, 5 μm, 4.6x150 mm). The solvent system used was water with 0.1% trifluoroacetic acid (solvent A) and acetonitrile with 0.1% trifluoroacetic acid (solvent B). […] The fractional product peak area was plotted as a function of reaction time, and the initial linear regime of this plot was fitted to a straight line to determine a reaction rate. Rates were corrected for substrate and enzyme concentration. Reactions were done in triplicate or quadruplicate.

The substance “Ac-SGDINYGQFAQ-NH2 [PLCG1_Y210_T209N, pTyr-Var library variant phosphosite peptide]” returned a Screen on c-Src kinase domain [1] of -3.177. Further, on c-Src kinase domain [2], the “Phosphorylation Rate” value turned out to be 0.307 s⁻¹.

These data come from paper PMC10065799, “High-throughput profiling of sequence recognition by tyrosine kinases and SH2 domains using bacterial peptide display” (eLife, 2023).
